# The supplement of paper PMC10307832
# Assays:
# VX-702 = compound: NC(=O)c1ccc(N(C(N)=O)c2c(F)cccc2F)nc1-c1ccc(F)cc1F [VX-702]; experiment: relative viability (nuclei count vs DMSO), 5 days (fraction); higher = more cells survive
# Outline: (§1)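 Only plates meeting two conditions passed: control CV below 25% and at least one doubling. Lung cancer cell lines, kept overnight at 37 °C in 1536-well plates, were pinned with five library-drug doses (not always all listed) √10 apart on vehicle-anchored plates and grown 5 days without medium change. A one-step fix, permeabilisation and Hoechst stain preceded 4× imaging and MetaXpress nuclear counting. Viability equals treated-well nuclei divided by vehicle-well nuclei, as the median over plates.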
# Dabrafenib = compound: CC(C)(C)c1nc(-c2cccc(NS(=O)(=O)c3c(F)cccc3F)c2F)c(-c2ccnc(N)n2)s1 [Dabrafenib]; experiment: as above
# Outline: as §1
Cell Line,relative viability (VX-702; 0.02 µM),relative viability (VX-702; 0.2 µM),relative viability (VX-702; 0.6325 µM),relative viability (VX-702; 2 µM),relative viability (Dabrafenib; 0.003 µM),relative viability (Dabrafenib; 0.009487 µM),relative viability (Dabrafenib; 0.03 µM),relative viability (Dabrafenib; 0.09487 µM),relative viability (Dabrafenib; 0.3 µM)
LXF-289,1.01,1.01,1.08,1.02,0.923,1,1.16,0.944,1.14
NCI-H23,1.07,0.87,1.1,1.16,–,0.913,0.85,0.642,0.919
NCI-H322M,0.979,0.888,1.01,1.02,–,1.14,–,0.943,0.9
NCI-H358,0.965,0.857,0.916,1.1,–,1.14,0.932,1.03,1.17
NCI-H441,1.14,0.952,0.934,0.992,–,0.96,1.01,0.51,0.766
NCI-H460,1.02,0.95,1.06,0.989,0.965,0.954,0.919,0.968,0.985
NCI-H520,0.969,0.925,1.03,1.07,0.974,0.941,0.795,0.884,0.921
